Reference: US20140303109A1 (priority 2010, published 2014)

How the values were obtained:
[1] = test system: miR-21, miR-200b, miR-200c; experiment: RT-PCR of miR-21, miR-200b, miR-200c in MIAPaCa-2 tumors; type: in vivo, mice
Protocol: Therefore, the expression of miRNAs (miRNA-200b, miR-200c, and miR-21) in MIAPaCa-2 tumors, was assessed with a TaqMan MicroRNA Assay kit (Applied Biosystems, Carlsbad, Calif.) following the manufacturer's protocol. 5 ng of total RNA was reverse transcribed and real-time PCR reactions were carried as previously described.

cellular 26S proteasome = molecular target: T1, cellular 26S proteasome (Homo sapiens, UniProt P20618+P28074); experiment: Proteasomal chymotrypsin-like activity in treated HCT 116 cells; type: cell-based; conditions: 24 h
T1 construct: host or cells: HCT 116 human colon cancer cells
Protocol: HCT 116 human colon cancer cells; human pancreatic carcinoma cell lines BxPC-3 and MIA PaCa-2, were purchased from American Type Culture Collection (Manassas, Va.) and grown in Dulbecco modified Eagle's medium supplemented with 10% fetal bovine serum (FBS), 100 units/ml of penicillin, and 100 μg/ml of streptomycin. Cells were maintained at 37° C. and 5% CO2. FBS was obtained from Tissue Culture Biologicals (Tulare, Calif.). Penicillin and streptomycin were purchased from Invitrogen Co. (Carlsbad, Calif.).
As a control, untreated cells were maintained in the solvent ethanol (E).

[2] = Tissue distribution after single intragastric dose; type: in vivo, mice; conditions: for concentration in the colon: 250 mg/kg oral; for preferential tissue distribution: 250 mg/kg single dose, liver, lung, kidney, heart, pancreas, colon
Protocol: (§1) The mice were randomly divided into two groups of 18 mice apiece. […] Blood and tissue samples were harvested before initiation of treatment (0 hr) and at 1, 2, 4, 6, 8, 12, 16, and 24 hrs following the intragastric administration. At each time point, two mice were euthanized and ˜200 μL blood was collected by cardiac puncture, and tissues (liver, lung, kidney, heart, pancreas, and colon) were harvested, washed free of blood with PBS, blotted dry, weighed, and stored at −80° C. until analysis. The collected blood samples were allowed to clot, centrifuged, and then the serum was separated and stored at −80° C. until analysis.
(§2) The tissue samples were homogenized in 5 volumes of ice-cold normal saline. Aliquots of serum or tissue homogenate were spiked with ethyl acetate (containing 50 ng/ml zilueton as an internal standard) as follows: 100 μL serum/500 μL ethyl acetate and 500 μL tissue homogenate/1 ml ethyl acetate. The mixtures were vortex-mixed and centrifuged at 14,000 rpm for 5 minutes. The top layer was separated and dried under a stream of nitrogen in a water bath at about 50° C. The residue was reconstituted in 100 μL of methanol/water containing 0.45% formic acid (70:30 v/v) and then centrifuged again.
(§3) The supernatant (100 μL) was injected into the HPLC equipment, and separated on a Waters Xterra MS column (2.1×50 mm, […] i.d.) With a mobile phase consisting of methanol/water containing 0.45% formic acid (70:30 v/v) at a flow rate of 0.2 ml/min. The column effluent was monitored using a Waters Quattro Micro™ triple quadrapole mass-spectrometric detector equipped with an electrospray ionization source. (Waters Corporation, Milford, Mass.). […] The internal standard zilueton was monitored in the positive mode at the transition of m/z, 237.1→160.8. […] The within-day and between-day precision and accuracies of the assay was <15%.

[3] = test system: NF-κB DNA binding activity; experiment: EMSA for NF-κB DNA binding activity, three PC lines; type: cell-based, human; conditions: 72 h; CDF/CUR 1 or 4 μMol/L, GEM 10 nMol/L
Protocol: The DNA binding activity of the nuclear transcription factor, NF-κB was assessed in the BxPC-3, MIAPaCa-E, and MIAPaCa-M cell lines by EMSA. […] The cells were lysed in 400 μl of lysis buffer and the reaction was set up as described earlier in Ali, et al., id. The gel was scanned using an Odyssey Infrared Imaging System, (LI-COR, Inc., Lincoln, Nebr.). Equal protein loading was ensured by immunoblotting 10 μg of nuclear protein and probing with anti-retinoblastoma antibody.

[4] = Serum pharmacokinetics after single intragastric dose; type: in vivo, mice
Protocol: as §1, §2, §3
Serum pharmacokinetic parameters were estimated using non-compartmental analysis with WinNonlin software version 4.2 (Pharsight Corporation, Cary, N.C.). The maximum serum concentration (Cmax) and the time of occurrence for maximum concentration (Tmax) were obtained by visual inspection of the serum concentration-time curve after drug administration. The total area under the serum concentration-time curve from time zero to the last measurable time point ([…]) was calculated using the linear and logarithmic trapezoidal method for ascending and descending serum concentrations, respectively.

[5] = test system: BxPC-3 pancreatic cancer cells; experiment: Cell Apoptosis ELISA (histone/DNA fragments), BxPC-3; type: cell-based, human; conditions: 72 h, various concentrations
Text: A Cell Apoptosis ELISA Detection Kit (Roche, Palo Alto, Calif.) was used to determine whether the inhibition of cell growth could be due, at least partially, to the induction of apoptosis, in the BxPC-3 pancreatic cancer cells. […] After the treatment, the cytoplasmic histone/DNA fragments were extracted and bound to immobilized anti-histone antibody. Subsequently, peroxidase-conjugated anti-DNA antibody was used for the detection of immobilized histone/DNA fragments.

[6] = test system: COX-2, E-cadherin, PTEN, pAkt, tropomyosin expression; experiment: Western blot of COX-2, E-cadherin, PTEN, pAkt, tropomyosin; type: cell-based, human; conditions: BxPC-3 cell line only, 72 h
miR-200b and miR-200c = experiment: Real-time RT-PCR of miR-200b and miR-200c in PC cell lines; type: cell-based, human; conditions: 72 h; BxPC-3, MIAPaCa-E, MIAPaCaM
Protocol: The expression of miRNAs (miRNA-200a, miR-200b, and miR-21) in all three pancreatic cancer cell lines, was measured with a TaqMan MicroRNA Assay kit (Applied Biosystems, Carlsbad, Calif.) following the manufacturer's protocol. […] Real-time RT-PCR reactions were then carried out in a total volume of 25 μl reaction mixture, as described by Li, et al., id., using Smart Cycler II (Cepheid, Sunnyvale, Calif.). The data were analyzed using Ct method and were normalized by RNU6B expression in each sample.

PGE2 = PGE2 immunoassay, three PC lines; type: cell-based, human; conditions: 24 h serum-free; CDF or CUR 1-4 μMol/L, GEM 10 nMol/L
[7] = serum, 250 mg/kg single intragastric
[8] = serum, as printed in text 'at 1 h'
[9] = female, ICR-SCID, mouse, po, serum, 250 mg/kg single intragastric

SMILES | expression of miR-200b and miR-200c in tumors [1] | inhibition at 10 µM (cellular 26S proteasome) | inhibition at 20 µM (cellular 26S proteasome) | inhibition at 30 µM (cellular 26S proteasome) | concentration in the colon [2] | preferential tissue distribution [2] | NF-κβ DNA binding activity [3] | Clast [4, 7] | AUClast [4, 8] | induction of apoptotic cell death [5] | E-cadherin expression [6] | expression of miR-200b and miR-200c (miR-200b and miR-200c) | PGE2 secretion level (PGE2) | further results
COc1cc(/C=C/C(=O)CC(=O)/C=C/c2ccc(O)c(OC)c2)ccc1O [CUR, (1E,6E)-1,7-bis(4-hydroxy-3-methoxyphenyl)hepta-1,6-diene-3,5-dione, reference compound] | minimal | 27% | 47% | 64% | detectable at high concentrations in the colon | present mainly in heart and lung tissue | much lower effects on NF-κβ DNA binding activity than the CDF-treated cells | 30 ng/mL | 0.44 µg/mL | induce apoptosis | significantly enhanced | increased expression of miR-200b and miR-200c | significant reduction in PGE2 level | AUClast [4, 7]: 440 ng·h/mL; Tlast ([4]; serum, 250 mg/kg single intragastric, 250 mg/kg): 8 h; Tlast ([4]; serum, 250 mg/kg single intragastric, listed as Curcumin, 250 mg/kg): 8.0 h
COc1cc(/C=C/C(=O)C(=Cc2ccc(F)c(F)c2)C(=O)/C=C/c2ccc(O)c(OC)c2)ccc1O [CDF, (1E,6E)-1,7-bis(4-hydroxy-3-methoxyphenyl)hepta-1,6-diene{4(3,4 difluorobenzaldehyde)}-3,5-dione] | increased expression of both miR-200b, and miR-200c | 34% | 51% | 61% | detectable at high concentrations in the colon | accumulated preferentially in the pancreas | significant inhibition in the DNA binding activity of NF-κβ in all three cell lines | 40 ng/mL | 1220 ng·h/mL | superior to CUR | significantly enhanced | much more pronounced | significant reduction in PGE2 level | expression of MiR-21 in tumors [1]: significant reduction in the expression of MiR-21; AUC(0-t) [4, 9]: 1220 ng·h/mL; Cmax [4, 9]: 210 ng/mL; Tmax [4, 9]: 8 h; increase in systemic drug level over Curcumin ([4]; serum AUClast, oral 250 mg/kg): 2.7 fold; Tlast [4, 7]: 16.0 h
